Test results taken from patent publication US20220064195A1, “SYNTHETIC I2 IMIDAZOLINE RECEPTOR LIGANDS FOR PREVENTION OR TREATMENT OF HUMAN BRAIN DISORDERS” (Universitat de Barcelona, priority 2018, published 2022).
“And” between values parts separate entries of the source, which are not always exact repeats. Identical values can stand only once. Like-named read-outs stand apart in the source and are kept apart here.

Experiments:
[1] = in vitro; conditions: pig, PAMPA
Description: (§1) To evaluate the brain penetration of the different compounds, a parallel artificial membrane permeation assay for blood-brain barrier was used, following the method described by Di et al. (cf. Table 2). The in vitro permeability (Pe) of fourteen commercial drugs through lipid extract of porcine brain membrane together with the test compounds were determined. Commercial drugs and assayed compounds were tested using a mixture of PBS:EtOH (70:30).

[2] = for CNS Prediction: predictive penetration in the CNS from PAMPA-BBB Pe
Description: as §1

[3] = test system: I2-IR; assay: Competition binding against the selective I2-IR radioligand [3H]-2-BFI in membranes from post-mortem human frontal cortex; conditions: for [^3H]-2-BFI I2 binding affinity (pKi): membranes from post-mortem human frontal cortex, radioligand [3H]-2-BFI

CCOP(=O)(OCC)[C@@]1(Cc2ccccc2)N=C[C@H]2C(=O)N(C3CCCCC3)C(=O)[C@H]21 (racemic) [Compound I-57, Diethyl (1RS,3aSR,6aSR)-1-benzyl-5-cyclohexyl-4,6-dioxo-1,3a,4,5,6,6a-hexahydropyrrolo[3,4-c]pyrrole-1-phosphonate]
Papp [1]: 5.1 ± 0.01 ×10⁻⁶ cm/s | CNS Prediction [2]: CNS+/− (compounds of uncertain BBB permeation (CNS+/−): 5,179>Pe (10^−6 cm s^−1)>2,083)

CCOP(=O)(OCC)[C@]1(c2ccccc2)N=C[C@H]2C(=O)N(c3cccc4ccccc34)C(=O)[C@H]21 (racemic) [Compound I-56, Diethyl (1RS,3aSR,6aSR)-5-(naphth-1-yl)-4,6-dioxo-1-phenyl-1,3a,4,5,6,6a-hexahydropyrrolo[3,4-c]pyrrole-1-phosphonate]
Papp [1]: 1.4 ± 0.06 ×10⁻⁶ cm/s | CNS Prediction [2]: CNS− (compounds of low BBB permeation (CNS−): Pe (10^−6 cm s^−1)<2,083)

CCOP(=O)(OCC)[C@]1(c2ccccc2)N=C[C@H]2C(=O)N(CCc3ccc(F)cc3)C(=O)[C@H]21 (racemic) [Compound I-36, Diethyl (1RS,3aSR,6aSR)-5-(4-fluorophenethyl)-4,6-dioxo-1-phenyl-1,3a,4,5,6,6a-hexahydropyrrolo[3,4-c]pyrrole-1-phosphonate]
Papp [1]: 7.2 ± 0.45 ×10⁻⁶ cm/s | CNS Prediction [2]: CNS+ (compounds of high BBB permeation (CNS+): Pe (10^−6 cm s^−1)>5,179)

CCOP(=O)(OCC)[C@]1(c2ccccc2)N=C[C@H]2C(=O)N(C(C)(C)C)C(=O)[C@H]21 (racemic) [Compound I-55, Diethyl (1RS,3aSR,6aSR)-5-(tert-butyl)-4,6-dioxo-1-phenyl-1,3a,4,5,6,6a-hexahydropyrrolo[3,4-c]pyrrole-1-phosphonate]
Papp [1]: 6.3 ± 0.3 ×10⁻⁶ cm/s | CNS Prediction [2]: CNS+ (compounds of high BBB permeation (CNS+): Pe (10^−6 cm s^−1)>5,179)

CCOP(=O)(OCC)[C@]1(c2ccccc2)N=C[C@H]2C(=O)N(CCc3ccccc3)C(=O)[C@H]21 (racemic) [Compound I-33, Diethyl (1RS,3aSR,6aSR)-4,6-dioxo-5-phenethyl-1-phenyl-1,3a,4,5,6,6a-hexahydropyrrolo[3,4-c]pyrrole-1-phosphonate]
Papp [1]: 6.2 ± 0.3 ×10⁻⁶ cm/s | Selectivity I2/α2 [3]: 182 | [^3H]-2-BFI I2 binding affinity (pKi) [3]: 5.85 ± 0.18 | CNS Prediction [2]: CNS+ (compounds of high BBB permeation (CNS+): Pe (10^−6 cm s^−1)>5,179)

CCOP(=O)(OCC)[C@]1(c2ccccc2)N=C[C@H]2C(=O)N(c3ccc(C(F)(F)F)cc3)C(=O)[C@H]21 (racemic) [Compound I-38, Diethyl (1RS,3aSR,6aSR)-4,6-dioxo-1-phenyl-5-[4-(trifluoromethyl)phenyl]-1,3a,4,5,6,6a-hexahydropyrrolo[3,4-c]pyrrole-1-phosphonate]
Papp [1]: 5.6 ± 0.15 ×10⁻⁶ cm/s | CNS Prediction [2]: CNS+ (compounds of high BBB permeation (CNS+): Pe (10^−6 cm s^−1)>5,179)

CCOP(=O)(OCC)[C@]1(c2ccccc2)N=C[C@H]2C(=O)N(c3cccc(C(F)(F)F)c3)C(=O)[C@H]21 (racemic) [Compound I-52, Diethyl (1RS,3aSR,6aSR)-4,6-dioxo-1-phenyl-5-[3-(trifluoromethyl)phenyl]-1,3a,4,5,6,6a-hexahydropyrrolo[3,4-c]pyrrole-1-phosphonate]
Papp [1]: 6.9 ± 0.2 ×10⁻⁶ cm/s | CNS Prediction [2]: CNS+ (compounds of high BBB permeation (CNS+): Pe (10^−6 cm s^−1)>5,179)

c1ccc2c(c1)OCC(C1=NCCN1)O2 (stereo not drawn) [Idazoxan, reference compound]
[^3H]-2-BFI I2 binding affinity (pKi) [3]: 7.27±0.07 and 7.41 ± 0.63

CCOP(=O)(OCC)[C@]1(c2ccccc2)N=C[C@H]2C(=O)N(c3ccccc3)C(=O)[C@H]21 (racemic) [Compound I-16, Diethyl (1RS,3aSR,6aSR)-4,6-dioxo-1,5-diphenyl-1,3a,4,5,6,6a-hexahydropyrrolo[3,4-c]pyrrole-1-phosphonate]
Papp [1]: 7.8 ± 0.6 ×10⁻⁶ cm/s | [^3H]-2-BFI I2 binding affinity (pKi) [3]: 10.28 ± 0.37 | CNS Prediction [2]: CNS+ (compounds of high BBB permeation (CNS+): Pe (10^−6 cm s^−1)>5,179)

CCCN1C(=O)[C@@H]2[C@@H](C=N[C@@]2(c2ccccc2)P(=O)(OCC)OCC)C1=O (racemic) [Compound I-51, Diethyl (1RS,3aSR,6aSR)-4,6-dioxo-1-phenyl-5-propyl-1,3a,4,5,6,6a-hexahydropyrrolo[3,4-c]pyrrole-1-phosphonate]
Papp [1]: 6.2 ± 0.3 ×10⁻⁶ cm/s | CNS Prediction [2]: CNS+ (compounds of high BBB permeation (CNS+): Pe (10^−6 cm s^−1)>5,179)

CCOP(=O)(OCC)[C@]1(C)N=C[C@H]2C(=O)N(C)C(=O)[C@H]21 (racemic) [Compound I-25, Diethyl (1RS,3aRS,6aRS)-1,5-dimethyl-4,6-dioxo-1,3a,4,5,6,6a-hexahydropyrrolo[3,4-c]pyrrole-1-phosphonate]
Papp [1]: 4.6 ± 0.7 ×10⁻⁶ cm/s | Selectivity I2/α2 ([3]; antilogarithm of the difference between pKi for I2-IR and pKi for α2-AR): 19 | [^3H]-2-BFI I2 binding affinity (pKi) [3]: 8.57 ± 0.39 | CNS Prediction [2]: CNS+/− (compounds of uncertain BBB permeation (CNS+/−): 5,179>Pe (10^−6 cm s^−1)>2,083)

CCOP(=O)(OCC)[C@]1(c2ccccc2)N=C[C@H]2C(=O)N(c3ccc(C)cc3)C(=O)[C@H]21 (racemic) [Compound I-45, Diethyl (1RS,3aSR,6aSR)-4,6-dioxo-1-phenyl-5-(p-tolyl)-1,3a,4,5,6,6a-hexahydropyrrolo[3,4-c]pyrrole-1-phosphonate]
Papp [1]: 8.75 ± 0.5 ×10⁻⁶ cm/s | CNS Prediction [2]: CNS+ (compounds of high BBB permeation (CNS+): Pe (10^−6 cm s^−1)>5,179)

CCOP(=O)(OCC)[C@]1(c2ccccc2)N=C[C@H]2C(=O)N(c3ccc(Cl)c(Cl)c3)C(=O)[C@H]21 (racemic) [Compound I-44, Diethyl (1RS,3aSR,6aSR)-5-(3,4-dichlorophenyl)-4,6-dioxo-1-phenyl-1,3a,4,5,6,6a-hexahydropyrrolo[3,4-c]pyrrole-1-phosphonate]
Papp [1]: 8.9 ± 0.3 ×10⁻⁶ cm/s | CNS Prediction [2]: CNS+ (compounds of high BBB permeation (CNS+): Pe (10^−6 cm s^−1)>5,179)

CCOP(=O)(OCC)[C@]1(c2ccccc2)N=C[C@H]2C(=O)N(c3ccc(Cl)cc3)C(=O)[C@H]21 (racemic) [Compound I-49, Diethyl (1RS,3aSR,6aSR)-5-(4-chlorophenyl)-4,6-dioxo-1-phenyl-1,3a,4,5,6,6a-hexahydropyrrolo[3,4-c]pyrrole-1-phosphonate]
Papp [1]: 5.5 ± 0.03 ×10⁻⁶ cm/s | CNS Prediction [2]: CNS+ (compounds of high BBB permeation (CNS+): Pe (10^−6 cm s^−1)>5,179)

CCOP(=O)(OCC)[C@]1(c2ccccc2)N=C[C@H]2C(=O)N(c3ccc(-c4ccccc4)cc3)C(=O)[C@H]21 (racemic) [Compound I-32, Diethyl (1RS,3aSR,6aSR)-5-(1,1′-biphenyl)-4-yl-4,6-dioxo-1-phenyl-1,3a,4,5,6,6a-hexahydropyrrolo[3,4-c]pyrrole-1-phosphonate]
Papp [1]: 8.2 ± 0.3 ×10⁻⁶ cm/s | [^3H]-2-BFI I2 binding affinity (pKi) [3]: 7.90 ± 0.46 | CNS Prediction [2]: CNS+ (compounds of high BBB permeation (CNS+): Pe (10^−6 cm s^−1)>5,179)

CCOP(=O)(OCC)[C@@]1(Cc2ccccc2)N=C[C@H]2C(=O)N(c3ccccc3)C(=O)[C@H]21 (racemic) [Compound I-46, Diethyl (1RS,3aSR,6aSR)-1-benzyl-4,6-dioxo-5-phenyl-1,3a,4,5,6,6a-hexahydropyrrolo[3,4-c]pyrrole-1-phosphonate]
Papp [1]: 6.9 ± 0.3 ×10⁻⁶ cm/s | CNS Prediction [2]: CNS+ (compounds of high BBB permeation (CNS+): Pe (10^−6 cm s^−1)>5,179)

CCOP(=O)(OCC)[C@]1(c2ccccc2)N=C[C@H]2C(=O)N(c3ccc(Oc4ccccc4)cc3)C(=O)[C@H]21 (racemic) [Compound I-34, Diethyl (1RS,3aSR,6aSR)-4,6-dioxo-5-(4-phenoxyphenyl)-1-phenyl-1,3a,4,5,6,6a-hexahydropyrrolo[3,4-c]pyrrole-1-phosphonate]
Papp [1]: 6.5 ± 0.02 ×10⁻⁶ cm/s | [^3H]-2-BFI I2 binding affinity (pKi) [3]: 6.96 ± 0.30 | CNS Prediction [2]: CNS+ (compounds of high BBB permeation (CNS+): Pe (10^−6 cm s^−1)>5,179)

CCn1cc(C(=O)O)c(=O)c2cc(F)c(N3CCNCC3)cc21 [norfloxacine, reference compound]
Permeability (Pe) Experimental value ± SD (n = 3) ([2]; PAMPA-BBB, PBS:EtOH (70:30), three experiments in triplicate): 0.90 ± 0.02 10−6 cm s^−1

CCOP(=O)(OCC)[C@]1(c2ccccc2)N=C[C@H]2C(=O)N(CC)C(=O)[C@H]21 (racemic) [Compound I-54, Diethyl (1RS,3aSR,6aSR)-5-ethyl-4,6-dioxo-1-phenyl-1,3a,4,5,6,6a-hexahydropyrrolo[3,4-c]pyrrole-1-phosphonate]
Papp [1]: 3.7 ± 0.5 ×10⁻⁶ cm/s | CNS Prediction [2]: CNS+/− (compounds of uncertain BBB permeation (CNS+/−): 5,179>Pe (10^−6 cm s^−1)>2,083)

CCOP(=O)(OCC)[C@]1(c2ccccc2)N=C[C@H]2C(=O)N(c3ccc(F)cc3)C(=O)[C@H]21 (racemic) [Compound I-37, Diethyl (1RS,3aSR,6aSR)-5-(4-fluorophenyl)-4,6-dioxo-1-phenyl-1,3a,4,5,6,6a-hexahydropyrrolo[3,4-c]pyrrole-1-phosphonate]
Papp [1]: 3.2 ± 0.2 ×10⁻⁶ cm/s | CNS Prediction [2]: CNS+/− (compounds of uncertain BBB permeation (CNS+/−): 5,179>Pe (10^−6 cm s^−1)>2,083)

CCOP(=O)(OCC)[C@]1(c2ccccc2)N=C[C@H]2C(=O)N(C3CCCCC3)C(=O)[C@H]21 (racemic) [Compound I-07, Diethyl (1RS,3aSR,6aSR)-5-cyclohexyl-4,6-dioxo-1-phenyl-1,3a,4,5,6,6a-hexahydropyrrolo[3,4-c]pyrrole-1-phosphonate]
Papp [1]: 25.9 ± 0.6 ×10⁻⁶ cm/s | [^3H]-2-BFI I2 binding affinity (pKi) [3]: 9.74 ± 0.29 | CNS Prediction [2]: CNS+ (compounds of high BBB permeation (CNS+): Pe (10^−6 cm s^−1)>5,179)

CCOP(=O)(OCC)[C@]1(c2ccccc2)N=C[C@H]2C(=O)N(c3ccc(OC)cc3)C(=O)[C@H]21 (racemic) [Compound I-22, Diethyl (1RS,3aSR,6aSR)-5-(4-methoxyphenyl)-4,6-dioxo-1-phenyl-1,3a,4,5,6,6a-hexahydropyrrolo[3,4-c]pyrrole-1-phosphonate]
Papp [1]: 3.9 ± 0.15 ×10⁻⁶ cm/s | [^3H]-2-BFI I2 binding affinity (pKi) [3]: 6.65 ± 1.27 | CNS Prediction [2]: CNS+/− (compounds of uncertain BBB permeation (CNS+/−): 5,179>Pe (10^−6 cm s^−1)>2,083)
